Here are results for eight compounds from US12590134B2, “GLP-1 agonist polypeptide compound and salt thereof, synthesis method therefor and use thereof” (Sinopep-Allsino Biopharmaceutical Co., Ltd., priority 2020, dated 2026).

Where two headings read alike, the source gives them in different places. Numbered stars: 1 amine (or outer) side, 2 acyl side, 3 side chain; on linkers, the order of the positions; unused ones are H or OH. Square brackets hold non-standard residues; d marks the D form. Side chains are listed from the residue outwards. Peptide text beside a SMILES is read from it. * marks the point of attachment. C18 diacid = O=C(O)CCCCCCCCCCCCCCCCC(=O)*; γGlu = O=C(O)[C@H](CCC(=O)[*:2])N[*:1]; Ac4c(3-oxa) = NC1(C(=O)O)COC1; dNle = CCCC[C@@H](N)C(=O)O; dNva = CCC[C@@H](N)C(=O)O; dAbu = CC[C@@H](N)C(=O)O; Abu = CC[C@H](N)C(=O)O; AEEA = NCCOCCOCC(=O)O

This experiment has as its target human GLP-1R (Homo sapiens, UniProt P43220). The experiment is described as follows: cAMP signal analysis of GLP-1R (GLP-1 receptor agonist activity). It is filed as cell-based. How it is done:
A wild human GLP-1R (NM_002062.5) was subjected to transient transfection and screened for two weeks by 600 μg/ml of hygromycin-B to obtain a cell line which was recombined and integrated into an FlpInCHO (Invitrogen) cell stable expression system. The culture condition of the FlpInCHO cell was as follows: 10% of heat-inactivated fetal calf serum was added to a DMEM culture solution, and the culture was performed in a 5% carbon dioxide cell incubator.
In the test, an LANCE cAMP detection kit was used for measuring the cAMP signal intensity.

The mark [1] stands for this setting: CHO cell line stably expressing human GLP-1R, downstream cAMP signal, LANCE cAMP kit, read-out: GLP-1R EC50.

Chain of human GLP-1R (P43220 24-463): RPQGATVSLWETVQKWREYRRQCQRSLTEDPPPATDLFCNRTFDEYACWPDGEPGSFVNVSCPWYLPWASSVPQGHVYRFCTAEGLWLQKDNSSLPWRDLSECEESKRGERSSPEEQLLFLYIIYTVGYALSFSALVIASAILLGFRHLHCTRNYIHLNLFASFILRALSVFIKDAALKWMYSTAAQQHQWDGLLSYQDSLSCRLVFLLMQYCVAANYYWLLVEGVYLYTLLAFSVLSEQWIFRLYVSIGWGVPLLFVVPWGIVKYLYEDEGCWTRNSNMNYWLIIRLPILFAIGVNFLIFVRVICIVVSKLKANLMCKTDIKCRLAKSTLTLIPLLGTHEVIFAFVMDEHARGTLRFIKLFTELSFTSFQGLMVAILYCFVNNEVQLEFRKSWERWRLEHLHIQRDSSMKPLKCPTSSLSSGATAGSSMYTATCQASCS

As usually defined, the EC50 is the concentration giving half of the maximal effect. With `CC[C@H](C)[C@H](NC(=O)[C@H](Cc1ccccc1)NC(=O)[C@H](CCC(=O)O)NC(=O)[C@H](CCCCNC(=O)COCCOCCNC(=O)COCCOCCNC(=O)CC[C@H](NC(=O)CCCCCCCCCCCCCCCCC(=O)O)C(=O)O)NC(=O)[C@H](C)NC(=O)[C@H](C)NC(=O)[C@H](CCC(N)=O)NC(=O)[C@@](C)(CC)NC(=O)[C@H](CCC(=O)O)NC(=O)[C@H](CC(C)C)NC(=O)[C@H](Cc1ccc(O)cc1)NC(=O)[C@H](CO)NC(=O)[C@H](CO)NC(=O)[C@@H](NC(=O)[C@H](CC(=O)O)NC(=O)[C@H](CO)NC(=O)[C@@H](NC(=O)[C@H](Cc1ccccc1)NC(=O)[C@@H](NC(=O)CNC(=O)[C@H](CCC(=O)O)NC(=O)[C@@](C)(CC)NC(=O)[C@@H](N)Cc1c[nH]cn1)[C@@H](C)O)[C@@H](C)O)C(C)C)C(=O)N[C@@H](C)C(=O)N[C@@H](Cc1c[nH]c2ccccc12)C(=O)N[C@@H](CC(C)C)C(=O)N[C@H](C(=O)N[C@@H](CCCNC(=N)N)C(=O)NCC(=O)N[C@@H](CCCNC(=N)N)C(=O)NCC(=O)O)C(C)C` [NO: 1], the 50% effective concentration (EC50) under setting [1] is 91.7 ± 9.69 nM. Still for that read-out and setting: the value for `CC[C@H](C)[C@H](NC(=O)[C@H](Cc1ccccc1)NC(=O)[C@H](CCC(=O)O)NC(=O)[C@H](CCCCNC(=O)COCCOCCNC(=O)COCCOCCNC(=O)CC[C@H](NC(=O)CCCCCCCCCCCCCCCCC(=O)O)C(=O)O)NC(=O)[C@H](C)NC(=O)[C@H](C)NC(=O)[C@H](CCC(N)=O)NC(=O)C1(NC(=O)[C@H](CCC(=O)O)NC(=O)[C@H](CC(C)C)NC(=O)[C@H](Cc2ccc(O)cc2)NC(=O)[C@H](CO)NC(=O)[C@H](CO)NC(=O)[C@@H](NC(=O)[C@H](CC(=O)O)NC(=O)[C@H](CO)NC(=O)[C@@H](NC(=O)[C@H](Cc2ccccc2)NC(=O)[C@@H](NC(=O)CNC(=O)[C@H](CCC(=O)O)NC(=O)C2(NC(=O)[C@@H](N)Cc3c[nH]cn3)COC2)[C@@H](C)O)[C@@H](C)O)C(C)C)COC1)C(=O)N[C@@H](C)C(=O)N[C@@H](Cc1c[nH]c2ccccc12)C(=O)N[C@@H](CC(C)C)C(=O)N[C@H](C(=O)N[C@@H](CCCNC(=N)N)C(=O)NCC(=O)N[C@@H](CCCNC(=N)N)C(=O)NCC(=O)O)C(C)C` [NO: 5] (H-H[Ac4c(3-oxa)]EGTFTSDVSSYLE[Ac4c(3-oxa)]QAAK([AEEA-AEEA-γGlu-C18 diacid])EFIAWLVRGRG-OH) was 0.915 ± 0.126 nM. Consider `CC[C@H](NC(=O)[C@H](CCC(=O)O)NC(=O)[C@H](CC(C)C)NC(=O)[C@H](Cc1ccc(O)cc1)NC(=O)[C@H](CO)NC(=O)[C@H](CO)NC(=O)[C@@H](NC(=O)[C@H](CC(=O)O)NC(=O)[C@H](CO)NC(=O)[C@@H](NC(=O)[C@H](Cc1ccccc1)NC(=O)[C@@H](NC(=O)CNC(=O)[C@H](CCC(=O)O)NC(=O)[C@H](CC)NC(=O)[C@@H](N)Cc1c[nH]cn1)[C@@H](C)O)[C@@H](C)O)C(C)C)C(=O)N[C@@H](CCC(N)=O)C(=O)N[C@@H](C)C(=O)N[C@@H](C)C(=O)N[C@@H](CCCCNC(=O)COCCOCCNC(=O)COCCOCCNC(=O)CC[C@H](NC(=O)CCCCCCCCCCCCCCCCC(=O)O)C(=O)O)C(=O)N[C@@H](CCC(=O)O)C(=O)N[C@@H](Cc1ccccc1)C(=O)N[C@H](C(=O)N[C@@H](C)C(=O)N[C@@H](Cc1c[nH]c2ccccc12)C(=O)N[C@@H](CC(C)C)C(=O)N[C@H](C(=O)N[C@@H](CCCNC(=N)N)C(=O)NCC(=O)N[C@@H](CCCNC(=N)N)C(=O)NCC(=O)O)C(C)C)[C@@H](C)CC` [NO: 7] (H-H[Abu]EGTFTSDVSSYLE[Abu]QAAK([AEEA-AEEA-γGlu-C18 diacid])EFIAWLVRGRG-OH), for which, under setting [1], the EC50 came out at 8.8 ± 1.41 nM.

As for `CC[C@@H](NC(=O)[C@H](CCC(=O)O)NC(=O)[C@H](CC(C)C)NC(=O)[C@H](Cc1ccc(O)cc1)NC(=O)[C@H](CO)NC(=O)[C@H](CO)NC(=O)[C@@H](NC(=O)[C@H](CC(=O)O)NC(=O)[C@H](CO)NC(=O)[C@@H](NC(=O)[C@H](Cc1ccccc1)NC(=O)[C@@H](NC(=O)CNC(=O)[C@H](CCC(=O)O)NC(=O)[C@@H](CC)NC(=O)[C@@H](N)Cc1c[nH]cn1)[C@@H](C)O)[C@@H](C)O)C(C)C)C(=O)N[C@@H](CCC(N)=O)C(=O)N[C@@H](C)C(=O)N[C@@H](C)C(=O)N[C@@H](CCCCNC(=O)COCCOCCNC(=O)COCCOCCNC(=O)CC[C@H](NC(=O)CCCCCCCCCCCCCCCCC(=O)O)C(=O)O)C(=O)N[C@@H](CCC(=O)O)C(=O)N[C@@H](Cc1ccccc1)C(=O)N[C@H](C(=O)N[C@@H](C)C(=O)N[C@@H](Cc1c[nH]c2ccccc12)C(=O)N[C@@H](CC(C)C)C(=O)N[C@H](C(=O)N[C@@H](CCCNC(=N)N)C(=O)NCC(=O)N[C@@H](CCCNC(=N)N)C(=O)NCC(=O)O)C(C)C)[C@@H](C)CC` [NO: 9] (H-H[dAbu]EGTFTSDVSSYLE[dAbu]QAAK([AEEA-AEEA-γGlu-C18 diacid])EFIAWLVRGRG-OH), the EC50 under setting [1] was found to be 0.675 ± 0.067 nM. On the same count and under the same terms, the figure for `CCSC[C@@H](NC(=O)[C@H](CCC(=O)O)NC(=O)[C@H](CC(C)C)NC(=O)[C@H](Cc1ccc(O)cc1)NC(=O)[C@H](CO)NC(=O)[C@H](CO)NC(=O)[C@@H](NC(=O)[C@H](CC(=O)O)NC(=O)[C@H](CO)NC(=O)[C@@H](NC(=O)[C@H](Cc1ccccc1)NC(=O)[C@@H](NC(=O)CNC(=O)[C@H](CCC(=O)O)NC(=O)[C@@H](CSCC)NC(=O)[C@@H](N)Cc1c[nH]cn1)[C@@H](C)O)[C@@H](C)O)C(C)C)C(=O)N[C@@H](CCC(N)=O)C(=O)N[C@@H](C)C(=O)N[C@@H](C)C(=O)N[C@@H](CCCCNC(=O)COCCOCCNC(=O)COCCOCCNC(=O)CC[C@H](NC(=O)CCCCCCCCCCCCCCCCC(=O)O)C(=O)O)C(=O)N[C@@H](CCC(=O)O)C(=O)N[C@@H](Cc1ccccc1)C(=O)N[C@H](C(=O)N[C@@H](C)C(=O)N[C@@H](Cc1c[nH]c2ccccc12)C(=O)N[C@@H](CC(C)C)C(=O)N[C@H](C(=O)N[C@@H](CCCNC(=N)N)C(=O)NCC(=O)N[C@@H](CCCNC(=N)N)C(=O)NCC(=O)O)C(C)C)[C@@H](C)CC` [NO: 11] (H-H[dC](Et)EGTFTSDVSSYLE[dC](Et)QAAK([AEEA-AEEA-γGlu-C18 diacid])EFIAWLVRGRG-OH) is 8.1 ± 0.507 nM; for `CCCC[C@@H](NC(=O)[C@H](CCC(=O)O)NC(=O)[C@H](CC(C)C)NC(=O)[C@H](Cc1ccc(O)cc1)NC(=O)[C@H](CO)NC(=O)[C@H](CO)NC(=O)[C@@H](NC(=O)[C@H](CC(=O)O)NC(=O)[C@H](CO)NC(=O)[C@@H](NC(=O)[C@H](Cc1ccccc1)NC(=O)[C@@H](NC(=O)CNC(=O)[C@H](CCC(=O)O)NC(=O)[C@@H](CCCC)NC(=O)[C@@H](N)Cc1c[nH]cn1)[C@@H](C)O)[C@@H](C)O)C(C)C)C(=O)N[C@@H](CCC(N)=O)C(=O)N[C@@H](C)C(=O)N[C@@H](C)C(=O)N[C@@H](CCCCNC(=O)COCCOCCNC(=O)COCCOCCNC(=O)CC[C@H](NC(=O)CCCCCCCCCCCCCCCCC(=O)O)C(=O)O)C(=O)N[C@@H](CCC(=O)O)C(=O)N[C@@H](Cc1ccccc1)C(=O)N[C@H](C(=O)N[C@@H](C)C(=O)N[C@@H](Cc1c[nH]c2ccccc12)C(=O)N[C@@H](CC(C)C)C(=O)N[C@H](C(=O)N[C@@H](CCCNC(=N)N)C(=O)NCC(=O)N[C@@H](CCCNC(=N)N)C(=O)NCC(=O)O)C(C)C)[C@@H](C)CC` [NO: 13] (H-H[dNle]EGTFTSDVSSYLE[dNle]QAAK([AEEA-AEEA-γGlu-C18 diacid])EFIAWLVRGRG-OH) it is 5.59 ± 0.575 nM; for `CCC[C@@H](NC(=O)[C@H](CCC(=O)O)NC(=O)[C@H](CC(C)C)NC(=O)[C@H](Cc1ccc(O)cc1)NC(=O)[C@H](CO)NC(=O)[C@H](CO)NC(=O)[C@@H](NC(=O)[C@H](CC(=O)O)NC(=O)[C@H](CO)NC(=O)[C@@H](NC(=O)[C@H](Cc1ccccc1)NC(=O)[C@@H](NC(=O)CNC(=O)[C@H](CCC(=O)O)NC(=O)[C@@H](CCC)NC(=O)[C@@H](N)Cc1c[nH]cn1)[C@@H](C)O)[C@@H](C)O)C(C)C)C(=O)N[C@@H](CCC(N)=O)C(=O)N[C@@H](C)C(=O)N[C@@H](C)C(=O)N[C@@H](CCCCNC(=O)COCCOCCNC(=O)COCCOCCNC(=O)CC[C@H](NC(=O)CCCCCCCCCCCCCCCCC(=O)O)C(=O)O)C(=O)N[C@@H](CCC(=O)O)C(=O)N[C@@H](Cc1ccccc1)C(=O)N[C@H](C(=O)N[C@@H](C)C(=O)N[C@@H](Cc1c[nH]c2ccccc12)C(=O)N[C@@H](CC(C)C)C(=O)N[C@H](C(=O)N[C@@H](CCCNC(=N)N)C(=O)NCC(=O)N[C@@H](CCCNC(=N)N)C(=O)NCC(=O)O)C(C)C)[C@@H](C)CC` [NO: 15] (H-H[dNva]EGTFTSDVSSYLE[dNva]QAAK([AEEA-AEEA-γGlu-C18 diacid])EFIAWLVRGRG-OH) it is 2.9 ± 0.39 nM.

Consider `CC[C@H](C)[C@H](NC(=O)[C@H](Cc1ccccc1)NC(=O)[C@H](CCC(=O)O)NC(=O)[C@H](CCCCNC(=O)COCCOCCNC(=O)COCCOCCNC(=O)CC[C@H](NC(=O)CCCCCCCCCCCCCCCCC(=O)O)C(=O)O)NC(=O)[C@H](C)NC(=O)[C@H](C)NC(=O)[C@H](CCC(N)=O)NC(=O)[C@@H]1CCCN1C(=O)[C@H](CCC(=O)O)NC(=O)[C@H](CC(C)C)NC(=O)[C@H](Cc1ccc(O)cc1)NC(=O)[C@H](CO)NC(=O)[C@H](CO)NC(=O)[C@@H](NC(=O)[C@H](CC(=O)O)NC(=O)[C@H](CO)NC(=O)[C@@H](NC(=O)[C@H](Cc1ccccc1)NC(=O)[C@@H](NC(=O)CNC(=O)[C@H](CCC(=O)O)NC(=O)[C@@H]1CCCN1C(=O)[C@@H](N)Cc1c[nH]cn1)[C@@H](C)O)[C@@H](C)O)C(C)C)C(=O)N[C@@H](C)C(=O)N[C@@H](Cc1c[nH]c2ccccc12)C(=O)N[C@@H](CC(C)C)C(=O)N[C@H](C(=O)N[C@@H](CCCNC(=N)N)C(=O)NCC(=O)N[C@@H](CCCNC(=N)N)C(=O)NCC(=O)O)C(C)C` [NO: 17], for which the EC50 turned out to be 3.32 ± 0.677 nM.
